Measurements taken from ChEMBL document CHEMBL1201862, “PubChem BioAssay data set” (2004).
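Cells were grown in 96-well plates and exposed to each compound for 48 hours at five concentrations; endpoints were interpolated linearly between bracketing concentrations, or set to the highest concentration if not reached. GI50 is the concentration that inhibits growth by half.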 Active and inactive are the calls of the source. Rule as the data show it: active = GI50 up to about 1.1 µM and inactive = higher.

How the values were obtained:
Test in all cases: DTP human tumour cell line panel, 48 h
A549 = system: A549
Malme-3M = system: Malme-3M
U-251 = system: U-251
OVCAR-4 = system: OVCAR-4
NCI-H522 = system: NCI-H522
HOP-62 = system: HOP-62
A498 = system: A498
MDA-N = system: MDA-N
SF-268 = system: SF-268
HCT-15 = system: HCT-15
SN12C = system: SN12C
EKVX = system: EKVX
SK-MEL-5 = system: SK-MEL-5
SK-MEL-2 = system: SK-MEL-2
UACC-62 = system: UACC-62
RXF 393 = system: RXF 393
HOP-92 = system: HOP-92
CCRF-CEM = system: CCRF-CEM
MCF7 = system: MCF7

Compound | GI50 (A549) | GI50 (Malme-3M) | GI50 (U-251) | GI50 (OVCAR-4) | GI50 (NCI-H522) | GI50 (HOP-62) | GI50 (A498) | GI50 (MDA-N) | GI50 (SF-268) | GI50 (HCT-15) [µM] | GI50 (SN12C) | GI50 (EKVX) | GI50 (SK-MEL-5) | GI50 (SK-MEL-2) | GI50 (UACC-62) | GI50 (RXF 393) | GI50 (HOP-92) | GI50 (CCRF-CEM) | GI50 (MCF7)
C=CC(C)(C)/C=C/c1ccc(O)cc1 | 29.1 µM (inactive) | 36.8 µM (inactive) | 30 µM (inactive) | 55.5 µM (inactive) | 34.4 µM (inactive) | 58.2 µM (inactive) | 28.3 µM (inactive) | 35 µM (inactive) | 33.9 µM (inactive) | 39.1 | 34.5 µM (inactive) | 45.3 µM (inactive) | 38.5 µM (inactive) | 23.4 µM (inactive) | 42.7 µM (inactive) | 24.8 µM (inactive) | 47 µM (inactive) | 39.3 µM (inactive) | 35.7 µM (inactive)
Cc1ccc(Nc2ncnc3sc(SCc4ccccc4)nc23)cc1 | 88.9 µM (inactive) | > 100 µM (inactive) | > 100 µM (inactive) | > 100 µM (inactive) | > 100 µM (inactive) | > 100 µM (inactive) | 8.81 µM (inactive) | > 100 µM (inactive) | > 100 µM (inactive) | 57.7 | > 100 µM (inactive) | > 100 µM (inactive) | 82.6 µM (inactive) | > 100 µM (inactive) | – | 84.9 µM (inactive) | 31.3 µM (inactive) | > 100 µM (inactive) | > 100 µM (inactive)
C/C(=N\Nc1nc2ccccc2[nH]1)c1ccncn1 | 0.151 µM (active) | 0.138 µM (active) | 0.147 µM (active) | 0.324 µM (active) | 0.104 µM (active) | 0.0951 µM (active) | 0.237 µM (active) | 0.698 µM (active) | 0.0879 µM (active) | 0.161 | 0.275 µM (active) | 0.133 µM (active) | 0.157 µM (active) | 0.617 µM (active) | 0.0764 µM (active) | 0.413 µM (active) | 0.0715 µM (active) | 0.0776 µM (active) | 0.152 µM (active)
COC(=O)/C=C/c1ccc2c(c1)CCC2 | 46.1 µM (inactive) | 66.5 µM (inactive) | 9.79 µM (inactive) | 74.3 µM (inactive) | 22.1 µM (inactive) | > 100 µM (inactive) | 27.2 µM (inactive) | > 100 µM (inactive) | 42.9 µM (inactive) | 17.3 | – | 82.6 µM (inactive) | 30.2 µM (inactive) | 48 µM (inactive) | – | 21 µM (inactive) | 5.28 µM (inactive) | 46.9 µM (inactive) | 52.5 µM (inactive)
CC1(C)C2CC3C4CC5(Nc6ccccc6C5N41)[C@]3(C)CC2=O (some centres not stated) | > 50 µM (inactive) | > 50 µM (inactive) | > 50 µM (inactive) | > 50 µM (inactive) | > 50 µM (inactive) | > 50 µM (inactive) | > 50 µM (inactive) | > 50 µM (inactive) | > 50 µM (inactive) | > 50 | > 50 µM (inactive) | > 50 µM (inactive) | > 50 µM (inactive) | > 50 µM (inactive) | > 50 µM (inactive) | > 50 µM (inactive) | 12.5 µM (inactive) | > 50 µM (inactive) | > 50 µM (inactive)
COC(=O)c1ccccc1C1CN=NC12Cc1c(C)c3c(c(C)c1C2=O)CCC3 (configuration not stated) | > 100 µM (inactive) | > 100 µM (inactive) | > 100 µM (inactive) | > 100 µM (inactive) | 33.7 µM (inactive) | 77.4 µM (inactive) | > 100 µM (inactive) | > 100 µM (inactive) | > 100 µM (inactive) | > 100 | > 100 µM (inactive) | > 100 µM (inactive) | > 100 µM (inactive) | > 100 µM (inactive) | > 100 µM (inactive) | > 100 µM (inactive) | 22.5 µM (inactive) | > 100 µM (inactive) | > 100 µM (inactive)
CCCCSC1=N/C(=C\c2ccc(N(C)C)cc2)C(=O)N1 | 17.3 µM (inactive) | 38.4 µM (inactive) | 18.4 µM (inactive) | 21 µM (inactive) | 21.7 µM (inactive) | 46.2 µM (inactive) | 13.9 µM (inactive) | 33.6 µM (inactive) | 32.8 µM (inactive) | 53.5 | 16.3 µM (inactive) | 19.1 µM (inactive) | 50.5 µM (inactive) | – | 20.7 µM (inactive) | 30 µM (inactive) | 27.3 µM (inactive) | > 100 µM (inactive) | 30.5 µM (inactive)
CCOC(=O)c1cc([N+](=O)[O-])c(Sc2ncnc3nc[nH]c23)c([N+](=O)[O-])c1 | 20.5 µM (inactive) | 3.15 µM (inactive) | 6.82 µM (inactive) | – | 0.643 µM (active) | 11.1 µM (inactive) | 12.7 µM (inactive) | 2.75 µM (inactive) | 4.5 µM (inactive) | 2.48 | 14.1 µM (inactive) | 4.92 µM (inactive) | 10.7 µM (inactive) | 8.89 µM (inactive) | 2.46 µM (inactive) | 9.59 µM (inactive) | 1.03 µM (active) | 1.27 µM (inactive) | 1.24 µM (inactive)
